Measurements: patent US6342501B1, “Pyrrolo[2,3-d] pyrimidines as antiviral agents” (The Regents of the University of Michigan, priority 1994, dated 2002)
Where two headings read alike, the source gives them in different places.

Assays:
[1] = tested on: human cytomegalovirus (HCMV); assay: microbe, parasite or virus in culture; type: cell-based, Towne strain; details: for IC50: Human betaherpesvirus 5, HFF, read-out: HCMV; for antiviral activity against HCMV (in words): comment on Table 1 data
Procedure: (§1) The routine growth and passage of KB and BSC-1 cells was performed in monolayer cultures using minimal essential medium (MEM) with either Hanks salts [MEM(H)] or Earle salts [MEM(E)] supplemented with 10% calf serum. The sodium bicarbonate concentration was varied to meet the buffering capacity required. Cultures of diploid human foreskin fibroblast (HFF) or MRC-5 cells were grown in medium consisting of MEM(E) with 10% fetal bovine serum. Cells were passaged at 1:2 to 1:10 dilutions according to conventional procedures by using 0.05% trypsin plus 0.02% EDTA in a HEPES buffered salt solution (HBS) [Shipman, C., Jr., Proc. Soc. […] HFF and MRC-5 cells were passaged only at 1:2 dilutions. The Towne strain, plaque-purified isolate Po, of HCMV was kindly provided by Dr. Mark Stinski, University of Iowa. The KOS strain of HSV-1 was used in most experiments and was provided by Dr. Sandra K. Weller, University of Conn.
Stock HCMV was prepared by infecting HFF cells at a multiplicity of infection (m.o.i.) of <0.01 plaque-forming units (p.f.u.) per cell. Cell growth medium was changed every four days until cytopathology was evident in all cells (approximately 21 days). Supernatant fluids were retained as the virus stock.
Virus titers were determined using monolayer cultures of HFF cells for HCMV and monolayer cultures of BSC-1 cells for HSV-1 as described earlier [Prichard, M. N., et al., J. Virol. […] Briefly, HFF or BSC-1 cells were planted as described above in 96-well cluster dishes and incubated overnight at 37. degree. C. in a humidified 3% C02 -97% air atmosphere. The next day cultures were inoculated with HCMV or HSV-1 and serially diluted 1:3 across the remaining eleven columns of the 96-well plate. Cultures were incubated at 37. degree. C. for 2 hr to permit virus adsorption and then virus inoculum was replaced with 0.2 ml of fresh medium. Cultures were incubated for seven days for HCMV, two or three days for HSV-1, the medium was removed, and the cell sheets were stained with 0.1% crystal violet in 20% methanol.
HFF cells in 24-well cluster dishes were infected with approximately 100 p.f.u. of HCMV per cm^2 cell sheet using the procedures detailed above. Following virus adsorption, compounds dissolved in growth medium were added to duplicate wells in four to eight selected concentrations. After incubation at 37° C. for 7 to 10 days, cell sheets were fixed, stained with crystal violet and microscopic plaques enumerated as described above.
After virus adsorption, inoculum was replaced with 0.2 mL of fresh medium containing test compounds. The first row of 12 wells was left undisturbed and served as virus controls. Each well in the second row received an additional 0.1 mL of medium with test compound at three times the desired final concentration. The contents of the 12 wells were mixed by repeated pipetting and then serially diluted 1:3 along the remaining wells. In this manner, six compounds could be tested in duplicate on a single plate with concentrations from […]. Plates were incubated at 37° C. for seven days, subjected to one cycle of freezing and thawing; aliquots from each of the eight wells of a given column were transferred to the first column of a fresh 96-well monolayer culture of HFF cells. Contents were mixed and serially diluted 1:3 across the remaining eleven columns of the secondary plate. Each column of the original primary plate was diluted across a separate plate in this manner. Cultures were incubated, plaques were enumerated, and titers calculated as described above.
(§2) Dose-response relationships were constructed by linearly regressing the percent inhibition of parameters derived in the preceding sections against logarithm 10 drug concentrations. […] Samples containing positive controls (acyclovir for HSV-1 and ganciclovir for HCMV) were used in all assays.

KB cells = assay: Cytotoxicity: KB cell growth (crystal violet staining); type: cell-based; details: Homo sapiens, read-out: KBgrv
Procedure: (§3) Two different assays were used to explore cytotoxicity of selected compounds: (i) Cytotoxicity produced in stationary HFF cells was determined by microscopic inspection of cells used in plaque assays which were not affected by the virus [Turk, S. R., et al, Antimicrob.
Briefly, 96-well cluster dishes were planted with KB cells at 3000-5000 cells per well. After overnight incubation at 37° C., test compound was added in quadruplicate at six to eight concentrations. Plates were incubated at 37° C for 48 hours in a CO2 incubator, rinsed, fixed with 95% ethanol, and stained with 0.1% crystal violet. Acidified ethanol was added and plates read at 570 nm in a spectrophotometer designed to read 96-well ELISA assay plates.
as §2

[2] = tested on: herpes simplex virus type 1 (HSV-1); assay: HSV-1 ELISA in BSC-1 cells; type: cell-based, KOS strain; details: read-out: HSV-1
Procedure: as §1
High titer HSV-1 stocks were prepared by infecting BSC cells at an m.o.i. of <0.1 as detailed previously [Turk, S. R., et al., Antimicrob.
Ninety-six-well cluster dishes were planted with 10,000 BSC-1 cells per well in 200 μL per well of MEM(E) plus 10% calf serum. After overnight incubation at 37° C., selected drug concentrations in quadruplicate and HSV-1 at a concentration of 100 p.f.u./well were added. Following a 3-day incubation at 37° C., medium was removed, plates were blocked, rinsed, and horse radish peroxidase conjugated rabbit anti-HSV-1 antibody was added. Following removal of the antibody containing solution, plates were rinsed, and then developed by adding 150 μL per well of a solution of tetramethylbenzidine as substrate. The reaction was stopped with H2SO4 and absorbance was read at 450 and 570 nm. Drug effects were calculated as a percentage of the reduction in absorbance in the presence of each drug concentration compared to absorbance obtained with virus in the absence of drug.
as §2

[3] = tested on: human foreskin fibroblasts (HFF cells); assay: Cytotoxicity in stationary HFF cells (microscopic inspection of plaque assay cells); type: cell-based; details: read-out: HFF
Procedure: as §3, §2

[4] = Table 1, cytotoxicity, KB cell growth, 48 hours
[5] = Human alphaherpesvirus 1, 72 h, Table 1, fifty-percent inhibitory concentration, ELISA, BSC-1 cells, 3-day incubation
[6] = Table 1, cytotoxicity, stationary HFF cells, visual
[7] = Human alphaherpesvirus 1, BSC-1, 72 h

Compound: N#Cc1c(N)n(Cc2ccc(F)cc2)c2ncnc(N)c12 [Compound 1365, 4,6-diamino-7-(4-flourobenzyl)-pyrrolo[2,3-d]pyrimidine-5-carbonitrile]
- IC50 [1]: 0.3 µM
- antiviral activity against HCMV (in words) [1]: good to excellent antiviral activity
- IC50 (KB cells; [4]): 60 µM
- IC50 [2, 5]: 33 µM
- IC50 [3, 6]: > 100 µM

Compound: N#Cc1cn(CCc2ccccc2)c2ncnc(N)c12 [Compound 1368, 4-amino-7-(2-phenyl)ethyl-pyrrolo[2,3-d]pyrimidine-5-carbonitrile]
- IC50 [1]: 0.7 µM
- antiviral activity against HCMV (in words) [1]: excellent activity
- IC50 (KB cells; [4]): > 100 µM
- IC50 [2, 5]: 10 µM
- IC50 [3, 6]: 32 µM

Compound: N#Cc1c(N)n(CCc2ccccc2)c2ncnc(N)c12 [Compound 1369, 4,6-diamino-7-(2-phenyl)ethyl-pyrrolo[2,3-d]pyrimidine-5-carbonitrile]
- IC50 [1]: < 0.1 µM
- antiviral activity against HCMV (in words) [1]: excellent activity
- IC50 (KB cells; [4]): 82 µM
- IC50 [2, 5]: 0.3 µM
- IC50 [3, 6]: 100 µM

Compound: N#Cc1cn(CC=Cc2ccccc2)c2ncnc(N)c12 [Compound 1372, 4-amino-7-(3-phenyl)prop-2-enyl-pyrrolo[2,3-d]pyrimidine-5-carbonitrile]
- IC50 [1]: > 10 µM
- IC50 (KB cells; [4]): > 100 µM
- IC50 [2, 5]: > 100 µM
- IC50 [3, 6]: > 10 µM

Compound: N#Cc1c(Br)n(Cc2ccc(Br)cc2)c2ncnc(N)c12 [Compound 1373, 4-amino-6-bromo-7-(4-bromobenzyl)-pyrrolo[2,3-d]pyrimidine-5-carbonitrile]
- IC50 [1]: 10.5 µM
- IC50 (KB cells; [4]): > 100 µM
- IC50 [2, 5]: > 100 µM
- IC50 [3, 6]: 10.5 µM

Compound: N#Cc1c(Br)n(Cc2cccc([N+](=O)[O-])c2)c2ncnc(N)c12 [Compound 1374, 4-amino-6-bromo-7-(3-nitrobenzyl)-pyrrolo[2,3-d]pyrimidine-5-carbonitrile]
- IC50 [1]: > 10 µM
- IC50 (KB cells; [4]): > 100 µM
- IC50 [2, 5]: > 100 µM
- IC50 [3, 6]: > 10 µM

Compound: NC(=O)c1cn(CCCc2ccccc2)c2ncnc(N)c12 [Compound 1376, 4-amino-7-(3-phenyl)propyl-pyrrolo[2,3-d]pyrimidine-5-carboxamide]
- IC50 [1]: 28 µM
- IC50 (KB cells; [4]): 70 µM
- IC50 [2, 5]: 35 µM
- IC50 [3, 6]: 100 µM

Compound: N#Cc1cn(Cc2cccc([N+](=O)[O-])c2)c2ncnc(N)c12 [Compound 1382, 4-amino-7-(3-nitrobenzyl)-pyrrolo[2,3-d]pyrimidine-5-carbonitrile]
- IC50 [1]: > 10 µM
- IC50 (KB cells; [4]): > 100 µM
- IC50 [2, 5]: > 100 µM
- IC50 [3, 6]: > 10 µM

Compound: N#Cc1c(Br)n(Cc2ccc(Cl)cc2)c2ncnc(N)c12 [Compound 1388, 4-amino-6-bromo-7-(4-chlorobenzyl)-pyrrolo[2,3-d]pyrimidine-5-carbonitrile]
- IC50 [1]: 116 µM
- IC50 (KB cells; [4]): > 100 µM
- IC50 [2, 5]: > 100 µM
- IC50 [3, 6]: 116 µM

Compound: N#Cc1c(N)n(Cc2ccc(Br)cc2)c2ncnc(N)c12 [Compound 1389, 4,6-diamino-7-(4-bromobenzyl)-pyrrolo[2,3-d]pyrimidine-5-carbonitrile]
- IC50 [1]: 0.2 µM
- antiviral activity against HCMV (in words) [1]: good to excellent antiviral activity
- IC50 (KB cells; [4]): 15 µM
- IC50 [2, 5]: > 100 µM
- IC50 [3, 6]: > 10 µM

Compound: NC(=O)c1cn(CCc2ccccc2)c2ncnc(N)c12 [Compound 1396, 4-amino-7-(2-phenyl)ethyl-pyrrolo[2,3-d]pyrimidine-5-carboxamide]
- IC50 [1]: 17 µM
- IC50 (KB cells; [4]): 40 µM
- IC50 [2, 5]: 45 µM
- IC50 [3, 6]: > 100 µM

Compound: NC(=O)c1c(Br)n(CCc2ccccc2)c2ncnc(N)c12 [Compound 1409, 4-amino-6-bromo-7-(2-phenyl)ethyl-pyrrolo[2,3-d]pyrimidine-5-carboxamide]
- IC50 [1]: 100 µM
- antiviral activity against HCMV (in words) [1]: lost
- IC50 (KB cells; [4]): > 100 µM
- IC50 [2, 5]: > 100 µM
- IC50 [3, 6]: > 100 µM

Compound: NC(=O)c1cn(Cc2ccc([N+](=O)[O-])cc2)c2ncnc(N)c12 [Compound 1412, 4-amino-7-(4-nitrobenzyl)-pyrrolo[2,3-d]pyrimidine-5-carboxamide]
- IC50 [1]: 5 µM
- antiviral activity against HCMV (in words) [1]: good to excellent antiviral activity
- IC50 (KB cells; KB, 48 h): > 100 µM
- IC50 [2, 7]: 45 µM
- IC50 ([3]; HFF): 100 µM

Compound: NC(=S)c1cn(CCCc2ccccc2)c2ncnc(N)c12 [Compound 1413, 4-amino-7-(3-phenyl)propyl-pyrrolo[2,3-d]pyrimidine-5-thiocarboxamide]
- IC50 [1]: 0.5 µM
- antiviral activity against HCMV (in words) [1]: excellent activity
- IC50 (KB cells; [4]): 38 µM
- IC50 [2, 5]: 1.5 µM
- IC50 [3, 6]: 32 µM

Compound: CC(c1ccccc1)n1cc(C#N)c2c(N)ncnc21 (stereo not shown) [Compound 1414, 4-amino-7-((2-phenyl)eth-2-yl)-pyrrolo[2,3-d]pyrimidine-5-carbonitrile]
- IC50 [1]: 17 µM
- IC50 (KB cells; [4]): 20 µM
- IC50 [2, 5]: 45 µM
- IC50 [3, 6]: > 120 µM

Compound: NC(=O)c1cn(Cc2ccc(F)cc2)c2ncnc(N)c12 [Compound 1419, 4-amino-7-(4-fluorobenzyl)-pyrrolo[2,3-d]pyrimidine-5-carboxamide]
- IC50 [1]: 4.2 µM
- antiviral activity against HCMV (in words) [1]: good to excellent antiviral activity
- IC50 (KB cells; KB, 48 h): 50 µM
- IC50 [2, 7]: 16 µM
- IC50 ([3]; HFF): 100 µM

Compound: NC(=O)c1cn(Cc2cccc([N+](=O)[O-])c2)c2ncnc(N)c12 [Compound 1421, 4-amino-7-(3-nitrobenzyl)-pyrrolo[2,3-d]pyrimidine-5-carboxamide]
- IC50 [1]: 42 µM
- IC50 (KB cells; KB, 48 h): > 100 µM
- IC50 [2, 7]: > 100 µM
- IC50 ([3]; HFF): > 100 µM

Compound: N#Cc1c(N)n(Cc2cccc([N+](=O)[O-])c2)c2ncnc(N)c12 [Compound 1425, 4,6-diamino-7-(3-nitrobenzyl)-pyrrolo[2,3-d]pyrimidine-5-carbonitrile]
- IC50 [1]: 5 µM
- antiviral activity against HCMV (in words) [1]: Some activity
- IC50 (KB cells; [4]): > 100 µM
- IC50 [2, 5]: > 100 µM
- IC50 [3, 6]: > 100 µM

Compound: Cc1ccc(Cn2c(Br)c(C(N)=O)c3c(N)ncnc32)cc1 [Compound 1427, 4-amino-6-bromo-7-(4-methylbenzyl)-pyrrolo[2,3-d]pyrimidine-5-carboxamide]
- IC50 [1]: > 10 µM
- IC50 (KB cells; KB, 48 h): > 100 µM
- IC50 [2, 7]: > 100 µM
- IC50 ([3]; HFF): > 10 µM
